Laboratory results reported in patent US4032625A, “Bone-seeking technetium-99m complex” (priority 1975, dated 1977).

Test: Distribution of 99mTc-EHDP and 85Sr in rabbits, simultaneous study (Example 2, Table 1)
Format: in vivo, New Zealand albino rabbits
Experimental: Adult New Zealand albino rabbits having an average weight of 3.8 kg were utilized. Strontium-85 was employed as a standard for comparison. […] Each dosage is contained in a volume of 1 ml.
The animals were sacrificed serially from 1 to 24 hours after injection and the activities in major organs were determined by counting multiple samples from each organ in a scintillation well counter (the technetium-99m counts were corrected for the Compton contributions from the strontium-85 activity in the technetium-99m energy window). Multiple samples were counted from the tibia, femur, spine and pelvic bones; the total activity in the skeleton was estimated by assuming the whole skeleton consisted of equal proportions by weight of tibia, spine, femur and pelvis and that the skeletal mass was 10% of the body weight. The red marrow was sampled from the femur and the total marrow was assumed to be 2.2% of the total body weight. Similarly, blood volume was assumed to be 7% and the skeletal muscle 43% of the body weight. The whole liver and both kidneys were weighed and multiple samples from each were counted to measure the total activity in each organ.
In another series of experiments carried out as described above, localization of technetium from its tin-phosphonate complex was determined in the callous of three week-old fractures of tibia in albino rabbits, again in comparison with strontium-85. Comparative radioassay of technetium-99m administered as the pertechnetate was measured in the callous of tibial fractures in rabbits at one and four hours after administration.

SMILES: [85Sr] [^85 Sr]
- % Dose in Whole Organ: Kidneys (1 Hr): 0.80 % dose
- % Dose in Whole Organ: Liver (1 Hr): 1.57 % dose
- % Dose in Whole Organ: One Femur (1 Hr): 1.04 % dose
- % Dose: Urine (1 Hr): 6.96 % dose
- % dose in whole organ: Blood (7% of body weight) (1 Hr): 11.9 % dose
- % dose in whole organ: Bone(Avg) (10% of body weight) (1 Hr): 56.0 % dose
- % dose in whole organ: Marrow (2.2% of body weight) (1 Hr): 0.91 % dose
- % dose in whole organ: Muscle (43% of body weight) (1 Hr): 13.4 % dose
- Bone/Muscle ratio (1 Hr): 19
- Ratio Bone/Blood (1 Hr): 3.4
- Ratio Bone/Marrow (1 Hr): 14
- Ratio Callus/N. Femur (1 Hr): 7
- Ratio Callus/N. Tibia (1 Hr): 9
- Ratio Plus/Blood (1 Hr): 18
- % Dose in Whole Organ: Kidneys (2 Hrs): 0.64 % dose
- % Dose in Whole Organ: Liver (2 Hrs): 0.98 % dose
- % Dose in Whole Organ: One Femur (2 Hrs): 1.21 % dose
- % Dose: Urine (2 Hrs): 18.0 % dose
- % dose in whole organ: Blood (7% of body weight) (2 Hrs): 7.08 % dose
- % dose in whole organ: Bone(Avg) (10% of body weight) (2 Hrs): 49.4 % dose
- % dose in whole organ: Marrow (2.2% of body weight) (2 Hrs): 0.76 % dose
- % dose in whole organ: Muscle (43% of body weight) (2 Hrs): 8.8 % dose
- Bone/Muscle ratio (2 Hrs): 32
- Ratio Bone/Blood (2 Hrs): 6.4
- Ratio Bone/Marrow (2 Hrs): 19
- % Dose in Whole Organ: Kidneys (4 Hrs): 0.34 % dose
- % Dose in Whole Organ: Liver (4 Hrs): 0.62 % dose
- % Dose in Whole Organ: One Femur (4 Hrs): 1.25 % dose
- % Dose: Urine (4 Hrs): 22.7 % dose
- % dose in whole organ: Blood (7% of body weight) (4 Hrs): 3.85 % dose
- % dose in whole organ: Bone(Avg) (10% of body weight) (4 Hrs): 68.1 % dose
- % dose in whole organ: Marrow (2.2% of body weight) (4 Hrs): 0.50 % dose
- % dose in whole organ: Muscle (43% of body weight) (4 Hrs): 6.46 % dose
- Bone/Muscle ratio (4 Hrs): 47
- Ratio Bone/Blood (4 Hrs): 13
- Ratio Bone/Marrow (4 Hrs): 32
- Ratio Callus/N. Femur (4 Hrs): 7
- Ratio Callus/N. Tibia (4 Hrs): 8
- Ratio Plus/Blood (4 Hrs): 81
- % Dose in Whole Organ: Kidneys (24 Hrs): 0.03 % dose
- % Dose in Whole Organ: Liver (24 Hrs): 0.04 % dose
- % Dose in Whole Organ: One Femur (24 Hrs): 0.93 % dose
- % dose in whole organ: Blood (7% of body weight) (24 Hrs): 0.29 % dose
- % dose in whole organ: Bone(Avg) (10% of body weight) (24 Hrs): 51.9 % dose
- % dose in whole organ: Marrow (2.2% of body weight) (24 Hrs): 0.10 % dose
- % dose in whole organ: Muscle (43% of body weight) (24 Hrs): 1.00 % dose
- Bone/Muscle ratio (24 Hrs): 227
- Ratio Bone/Blood (24 Hrs): 134
- Ratio Bone/Marrow (24 Hrs): 119
